Patent publication US20240122899A1, “COMPOSITION FOR STIMULATING IMMUNE CELL METABOLISM” (SUNTORY HOLDINGS LIMITED, priority 2021, published 2024)

Tests used:
[1] = system: human peripheral blood mononuclear cells (PBMCs); assay: Mitochondrial stress test / oxygen consumption rate (XFe96 flux analyzer) in human PBMCs; format: cell-based; settings: final concentration of 10 μM, 30 μM, or 100 μM
Method: The effect of the compound (L-ergothioneine) of the present invention on mitochondrial function was analyzed. Ergothioneine was added to human peripheral blood mononuclear cells (PBMCs) under the following conditions. The extracellular oxygen level and pH were measured in real time using an XFe96 flux analyzer (available from Agilent Technologies). XFe technology uses solid-state sensors to simultaneously measure both oxygen consumption rate (OCR) and extracellular acidification rate (ECAR) to determine effects on oxidative phosphorylation (OXPHOS) and glycolysis simultaneously. […] Then, the cells were sequentially exposed to various mitochondrial function inhibitors to evaluate cell metabolism. (Conditions for adding ergothioneine to human PBMCs) Human PBMCs were kept in an XF assay medium (XF RPMI1640 medium). Here, L-ergothioneine was adjusted to a final concentration of 0, 10, 30, or 100 μM. The cells (30,000 cells/50 μL/well) were seeded onto an XF96-well cell culture plate coated with PDL and were centrifuged at 200 g for one minute so that the cells were adhered to the plate. After culturing at 37° C. in the absence of CO2 for 20 minutes, the XF assay medium (130 μL) was added gently, followed by further culturing at 37° C. in the absence of CO2 for 40 minutes. The following mitochondrial stress test was performed on the obtained human PBMCs to which ergothioneine was added. An XF Mit Stress Kit (available from Agilent Technologies) was used for the experiment. […] The results obtained are shown in FIG. 1A (basal respiration), FIG. 1B (ATP production), and FIG. 1C (maximum respiration) to facilitate understanding of a possible mechanism of mitochondria metabolism. […] FIGS. 1A to 1C show the resulting values expressed as mean±standard deviation. A significance test was performed by Dunnett's test (test by multiple comparison assuming equal variance, p-value) using an Excel analysis tool to obtain test results relative to the final concentration (0 μM) of ergothioneine (*: p<0.05, **: p<0.01).

[2] = mice orally administered, versus mice not administered; cited from earlier work
[3] = system: IL-6, IL-12, IL-1β, and IL-10; settings: absence of the TLR ligand; ergothioneine concentration 0 or 10 mM; cited from earlier work

## C[N+](C)(C)[C@@H](Cc1c[nH]c(=S)[nH]1)C(=O)[O-] [ergothioneine, L-ergothioneine]
[1]; FIG. 2
  oxygen consumption rate (OCR) of human PBMCs over time: increase
[1]; relative to 0 μM, FIG. 1A
  OCR related to basal respiration (mitochondrial basal respiration): significant increase
[1]; relative to 0 μM, FIG. 1B
  OCR related to ATP-related respiration (mitochondrial ATP production): significant increase
[1]; relative to 0 μM, FIG. 1C
  OCR related to maximum respiration (mitochondrial maximum respiration): significant increase
[2]
  peritesticular fat weight: lower
  triglyceride (neutral fat) level in plasma: lower
[3]
  detection of IL-6, IL-12, IL-1β, and IL-10: none of IL-6, IL-12, IL-1β, and IL-10 was detected
